In patent US20240360094A1, “COMPOUND FOR TREATING DISEASES RELATED TO CEREBRAL ISCHEMIC INJURY” (JIANGSU CHIA TAI FENGHAI PHARMACEUTICAL CO., LTD., priority 2021, published 2024):
Like-named read-outs stand apart in the source and are kept apart here. Marks after values point to notes of the source that are not given here.

What was measured:
[1] = Pharmacokinetic test in rats; type: in vivo, rat; settings: male SD rats
Method: Male SD rats (weighing 180-260 g) were administered with compound (I) at a dose of 1.0 mg/kg by tail vein injection and at a dose of 10.0 mg/kg orally. Each group consisted of 3 animals. The solvent for administration was a solution of 5% DMSO+5% polyethoxylated castor oil (Cremophor EL) in normal saline. The rats were fasted for about 12 h before administration and were given ad libitum access to food 4 h after administration, and water was available all the time. Blood was collected from the orbit at about 0.2 mL before administration and 5 min, 15 min, 30 min, 1 h, 2 h, 4 h, 6 h, 8 h, and 24 h after administration. The samples were placed in EDTA-K2 anticoagulant EP tubes in an ice bath, and subjected to low-speed centrifugation at 4° C. and 3500 rpm for 10 min to isolate plasma, which was then stored at −20° C. before analysis. The concentration of compound (I) in the plasma was quantified by liquid chromatography-tandem mass spectrometry (LC-MS/MS). Pharmacokinetic parameters were calculated from the analysis results of the samples using WinNonlin software.

[2] = tested on: Middle cerebral artery occlusion (MCAO) models of SD rats; test: Rat cerebral stroke model (MCAO), 28 days, pathological examination of brain; type: in vivo
Method: Middle cerebral artery occlusion (MCAO) models of SD rata were constructed by using the suture occlusion method. The rats were administered with the test compound for 28 consecutive days. The pharmacodynamic evaluation on the test compound for cerebral stroke was obtained based on general observation and neurobehavioral assessment. After anesthesia induction with 3.0% isoflurane in SD rats (240-280 g), the operation was performed and the right common carotid artery (CCA), and the right-side neck area was dissected to reveal the right common carotid artery (CCA), external carotid artery (ECA) and internal carotid artery (ICA). The ECA was ligated. The ICA was temporarily occluded. Sutures were threaded at both the proximal end and the distal end of CCA. The distal end was securely ligated, and a loosely tied knot was placed at the proximal end. A small incision was made on the CCA between these two sutures. A No. 4-0 suture was inserted through the incision of CCA and slowly and gently pushed into the ICA. The threading was stopped temporarily when reaching the artery clamp of ICA. The pre-ligation suture was further tightened. The artery clamp blocking the blood flow in the ICA was removed, allowing the suture occlusion to be advanced into the ICA until it entered the intracranial region. […] The insertion was stopped at the moment, and the time was recorded. The artery clamp on the CCA was removed and the incision was closed after no active bleeding was observed. The ischemic rats were placed at room temperature to keep their body temperature at 37° C., and anesthesia induction could be carried out 120 min later. The suture was slowly and gradually withdrawn when the rats were maintained under anesthesia, so that the proximal end of the suture returned to the ECA, thereby initiating reperfusion of the middle cerebral artery. Animals received the designated dosage immediately (within 10 min) after reperfusion. This dosing regimen continued once daily for a duration of 28 days, with the day of operation being defined as D1 (Day 1). A total of 5 groups were set, sham surgery group, model control group, NBP group (60 mg/kg, p.o., q.d), compound (I) low dose p.o. group (6 mg/kg, p.o., q.d), and a compound (I) high dose p.o. group (20 mg/kg, p.o., q.d). During administration, all animals were subjected to grid walking tests (D7, D14, D21, and D28, 4 times in total) and novel object recognition tests (adaptation for novel object recognition on D26, test on D27). After the completion of the 28-day dosing period, all surviving animals in the study were euthanized, and their brains were rapidly collected for pathological analysis. (3) Pathological examination: 1) the restoration range: samples with a restoration area range of >30% are considered to be good in recovery, while samples with a restoration area range of ≤30% are considered to be poor in recovery. […] In addition, for the compound (I) low dose group and the compound (I) high dose group, the proportion values of animal samples having >10 erythrocyte-containing blood vessels in the restoration area were 100% and 92.3%, respectively, both being no less than 90%.

[3] = Distribution in brain tissues of rats (plasma and brain concentration); type: in vivo; settings: rat, po, male SD rats, 20 mg/kg p.o.
Method: Plasma and brain tissue samples were collected from the animals at 0.5 h, 1 h, 4 h, and 24 h after administration. Collection of plasma: 0.2 mL of whole blood was collected by using an EP tube containing EDTA-K2 and centrifuged at 3500 g for 10 min, and then the upper plasma was collected and stored at −20° C. Collection of brain tissue: after the animals were euthanized, a proper amount of brain tissues were weighed out and homogenized with methanol in water (80%, w/v) at a ratio of 1:4. The concentration of compound in the plasma and brain tissue samples was quantified by liquid chromatography-tandem mass spectrometry (LC-MS/MS).

[4] = Pharmacokinetics of 3-n-butylphthalide in rat plasma (value in literature); type: in vivo; settings: rats, p.o. 60 mg/kg vs i.v. 10 mg/kg; calculated based on the literature value of AUC0-inf
[5] = tested on: Middle cerebral artery occlusion (MCAO) models of SD rats; test: Rat cerebral stroke model (MCAO), 28 days, novel object recognition test; type: in vivo; settings: 60 mg/kg p.o. q.d, Mean ± SD
Method: (§1) Middle cerebral artery occlusion (MCAO) models of SD rata were constructed by using the suture occlusion method. The rats were administered with the test compound for 28 consecutive days. The pharmacodynamic evaluation on the test compound for cerebral stroke was obtained based on general observation and neurobehavioral assessment.
(§2) After anesthesia induction with 3.0% isoflurane in SD rats (240-280 g), the operation was performed and the right common carotid artery (CCA), and the right-side neck area was dissected to reveal the right common carotid artery (CCA), external carotid artery (ECA) and internal carotid artery (ICA). The ECA was ligated. The ICA was temporarily occluded. Sutures were threaded at both the proximal end and the distal end of CCA. The distal end was securely ligated, and a loosely tied knot was placed at the proximal end. A small incision was made on the CCA between these two sutures. A No. 4-0 suture was inserted through the incision of CCA and slowly and gently pushed into the ICA. The threading was stopped temporarily when reaching the artery clamp of ICA. The pre-ligation suture was further tightened. The artery clamp blocking the blood flow in the ICA was removed, allowing the suture occlusion to be advanced into the ICA until it entered the intracranial region. […] The insertion was stopped at the moment, and the time was recorded. The artery clamp on the CCA was removed and the incision was closed after no active bleeding was observed. The ischemic rats were placed at room temperature to keep their body temperature at 37° C., and anesthesia induction could be carried out 120 min later. The suture was slowly and gradually withdrawn when the rats were maintained under anesthesia, so that the proximal end of the suture returned to the ECA, thereby initiating reperfusion of the middle cerebral artery. Animals received the designated dosage immediately (within 10 min) after reperfusion. This dosing regimen continued once daily for a duration of 28 days, with the day of operation being defined as D1 (Day 1). A total of 5 groups were set, sham surgery group, model control group, NBP group (60 mg/kg, p.o., q.d), compound (I) low dose p.o. group (6 mg/kg, p.o., q.d), and a compound (I) high dose p.o. group (20 mg/kg, p.o., q.d). During administration, all animals were subjected to grid walking tests (D7, D14, D21, and D28, 4 times in total) and novel object recognition tests (adaptation for novel object recognition on D26, test on D27). After the completion of the 28-day dosing period, all surviving animals in the study were euthanized, and their brains were rapidly collected for pathological analysis.

[6] = tested on: Middle cerebral artery occlusion (MCAO) models of SD rats; test: Rat cerebral stroke model (MCAO), 28 days, grid walking test; type: in vivo; settings: 60 mg/kg p.o. q.d, Mean ± SD
Method: as §1, §2

[7] = rats, value in literature, cited from earlier work
[8] = brain, read-out: Measured value in brain tissues Concentration
[9] = plasma, read-out: Measured value in plasma Concentration

CCC/C(O)=C1/C(=O)Oc2ccccc21 [Compound (I), (Z)-3-(1-hydroxybutylidene)benzofuran-2 (3H)-one]
F ([1]; p.o. 10 mg/kg vs i.v. 1 mg/kg): 144.2%
AUC0-inf ([1]; rat, iv, i.v. 1 mg/kg, plasma): 59200 ng·h/mL
AUC0-t ([1]; rat, iv, i.v. 1 mg/kg, plasma): 52500 ng·h/mL
MRT inf ([1]; rat, iv, i.v. 1 mg/kg, plasma): 9.8 h
half-life ([1]; rat, iv, i.v. 1 mg/kg, plasma): 7.5 h
AUC0-inf ([1]; rat, po, p.o. 10 mg/kg, plasma): 854000 ng·h/mL
AUC0-t ([1]; rat, po, p.o. 10 mg/kg, plasma): 703000 ng·h/mL
Cmax ([1]; rat, po, p.o. 10 mg/kg, plasma): 56500 ng/mL
MRT inf ([1]; rat, po, p.o. 10 mg/kg, plasma): 13.2 h
Tmax ([1]; rat, po, p.o. 10 mg/kg, plasma): 0.5 h
half-life ([1]; rat, po, p.o. 10 mg/kg, plasma): 9.6 h
Number of animals with >10 erythrocyte-containing blood vessels ([2]; high dose 20 mg/kg p.o. q.d 28 days, N = 13, infarction restoration area, 20 mg/kg): 12**
Number of animals with >10 erythrocyte-containing blood vessels ([2]; high dose 20 mg/kg p.o. q.d 28 days, N = 13, infarction restoration area, listed as compound (I), 20 mg/kg): 12
Number of animals with >10 erythrocyte-containing blood vessels ([2]; low dose 6 mg/kg p.o. q.d 28 days, N = 12, infarction restoration area, 6 mg/kg): 12**
Number of animals with >10 erythrocyte-containing blood vessels ([2]; low dose 6 mg/kg p.o. q.d 28 days, N = 12, infarction restoration area, listed as compound (I), 6 mg/kg): 12
concentration at 0.5 h [3, 8]: 8730 ng/g
concentration at 1 h [3, 8]: 5730 ng/g
concentration at 4 h [3, 8]: 5030 ng/g
concentration at 24 h [3, 8]: 285 ng/g
concentration at 0.5 h [3, 9]: 241000 ng/mL
concentration at 1 h [3, 9]: 192000 ng/mL
concentration at 4 h [3, 9]: 182000 ng/mL
concentration at 24 h [3, 9]: 23500 ng/mL

CCCCC1OC(=O)c2ccccc21 (stereo not drawn) [NBP, 3-n-butylphthalide]
F [4]: 16.6* %
Sniffing time Familiar object ([5]; model control 2.70 ± 2.22): 1.60 ± 1.01 S
Sniffing time Novel object ([5]; model control 3.82 ± 3.40): 4.94 ± 3.60 S
Recognition index Familiar object (FRI) ([5]; model control 45.19 ± 21.94): 29.03 ± 22.57%
Recognition index Novel object (NRI) ([5]; model control 54.81 ± 21.94): 70.97±22.57%
Misstep frequency ([6]; 1 W after operation, model control 7.24 ± 3.59): 7.37±3.03 times
Misstep frequency ([6]; 2 W after operation, model control 5.35 ± 4.40): 8.10 ± 2.97 times
Misstep frequency ([6]; 3 W after operation, model control 4.09 ± 3.140): 6.27 ± 2.890 times
Misstep frequency ([6]; 4 W after operation, model control 1.59 ± 0.84): 2.10 ± 1.46 times
AUC0-inf ([7]; i.v. 10 mg/kg): 8620.0 ng·h/mL
AUC0-t ([7]; i.v. 10 mg/kg): 7230.0 ng·h/mL
MRTinf ([7]; i.v. 10 mg/kg): 2.4 h
T1/2 ([7]; i.v. 10 mg/kg): 2.2 h
AUC0-inf ([7]; p.o. 60 mg/kg): 8560.0 ng·h/mL
AUC0-t ([7]; p.o. 60 mg/kg): 7110.0 ng·h/mL
Cmax ([7]; p.o. 60 mg/kg): 2900.0 ng/mL
MRTinf ([7]; p.o. 60 mg/kg): 3.8 h
T1/2 ([7]; p.o. 60 mg/kg): 2.83 h
Tmax ([7]; p.o. 60 mg/kg): 0.7 h
Number of samples Restoration area > 30% ([2]; 60 mg/kg p.o. q.d 28 days, N = 14, model control 3 of 17): 3
Number of samples Restoration area ≤ 30% ([2]; 60 mg/kg p.o. q.d 28 days, N = 14, model control 14 of 17): 11
Number of animals with ≤10 erythrocyte-containing blood vessels ([2]; 60 mg/kg p.o. q.d 28 days, N = 15, infarction restoration area, model control 10 of 17): 1
Proportion of samples having >10 erythrocyte-containing blood vessels ([2]; 60 mg/kg p.o. q.d 28 days, model control 41.2): 93.3%
Proportion of samples showing good recovery ([2]; 60 mg/kg p.o. q.d 28 days, restoration area >30%, model control 17.6): 21.4%
concentration at 0.5 h [3, 8]: 28.5 ng/g
concentration at 1 h [3, 8]: 22.8 ng/g
concentration at 4 h [3, 8]: 10.2 ng/g
concentration at 0.5 h [3, 9]: 26 ng/mL
concentration at 1 h [3, 9]: 19.1 ng/mL
concentration at 4 h [3, 9]: 7.2 ng/mL
concentration at 24 h [3, 9]: 1.7 ng/mL
